Values of other authors as cited in patent publication WO2005058299A1, “Phenethanolamine derivatives for treatment of respiratory diseases” (Glaxo Group Ltd, priority 2003, dated 2005).

tested on: PDE4; conditions: IC50 for PDE4 form which binds rolipram with high affinity divided by IC50 for form which binds rolipram with low affinity

Molecule | IC50 ratio
COC(=O)C1CC(C#N)(c2ccc(OC(F)F)c(OCC3CC3)c2)CCC1=O (stereo not drawn) [2-carbomethoxy-4-cyano-4-(3-cyclopropylmethoxy-4-difluoromethoxyphenyl)cyclohexan-1-one] | ≥ 0.1
COc1ccc([C@]2(C#N)CC[C@@H](C(=O)O)CC2)cc1OC1CCCC1 [cis 4-cyano-4-(3-cyclopentyloxy-4-methoxyphenyl)cyclohexan-1-carboxylic acid] | ≥ 0.1
c/s-[4-cyano-4-(3-cyclopropylmethoxy-4- difluoromethoxyphenyl)cyclohexan-1-ol] | ≥ 0.1
